Results taken from patent US20200331882A1, “COMPOUND FOR SIMULTANEOUSLY INHIBITING LSD1 AND HDAC TARGETS AND APPLICATION THEREOF” (PEKING UNIVERSITY SHENZHEN GRADUATE SCHOOL, priority 2018, published 2020).

What was measured:
[1] = system: human breast cancer cell line BT-474; experiment: MTT tumor cell proliferation; format: cell-based; details: 72 h
Excerpt: (§1) MTT colorimetric method was used to detect the inhibitory activity of a series of compounds (i.e. ZZY-001 to ZZY-016, a total of 16 kinds) of the embodiment of the present invention on the proliferation of tumor cells in vitro. The full name of MTT is 3-(4,5-dimethyl-2-thiazolyl)-2,5-diphenyl-2-H-tetrazolium romide, which is a yellow dye also known as thiazolyl blue. […] DMSO can dissolve Formazan deposited in cells and the absorbance value can be measured with a enzyme marker at a wavelength of 490 nm. In a certain range of cell number, the production of Formazan is proportional to the number of cells, so the number of living cells can be inferred according to the measured OD value.
(§2) The cell suspension was inoculated on a 96-well plate at 100 μl/well and cultured in a constant temperature CO2 incubator for 24 h. Then the tested drugs were added, 100 μl/well, and cultured for 72 h. MTT was added to a 96-well plate, 20 μl/well, and reacted for 4 h in the incubator. Absorb the supernatant, add DMSO, 150 μl/well and shake for 10 min on the plate shaker. The optical density (OD value) of each well was measured by enzyme marker at the wavelength of 490 nm.

[2] = system: human colon adenocarcinoma cell HCT116; experiment: MTT tumor cell proliferation; format: cell-based
Excerpt: as §1, §2

[3] = system: mouse colon cancer cell CT26.WT; experiment: MTT tumor cell proliferation; format: cell-based; details: 72 h
Excerpt: as §1, §2

[4] = system: mouse breast cancer cell 4T1; experiment: MTT tumor cell proliferation; format: cell-based; details: 72 h
Excerpt: as §1, §2

[5] = target: T1, HDAC1 (Homo sapiens, UniProt Q13547); experiment: In vitro HDAC1 inhibitory activity, FLUOR DE LYS HDAC1 fluorometric assay kit; format: biochemical; details: HDAC1 enzyme activity in vitro
T1 construct: purchased Enzo Biochem Inc
T1 sequence (Q13547 whole entry): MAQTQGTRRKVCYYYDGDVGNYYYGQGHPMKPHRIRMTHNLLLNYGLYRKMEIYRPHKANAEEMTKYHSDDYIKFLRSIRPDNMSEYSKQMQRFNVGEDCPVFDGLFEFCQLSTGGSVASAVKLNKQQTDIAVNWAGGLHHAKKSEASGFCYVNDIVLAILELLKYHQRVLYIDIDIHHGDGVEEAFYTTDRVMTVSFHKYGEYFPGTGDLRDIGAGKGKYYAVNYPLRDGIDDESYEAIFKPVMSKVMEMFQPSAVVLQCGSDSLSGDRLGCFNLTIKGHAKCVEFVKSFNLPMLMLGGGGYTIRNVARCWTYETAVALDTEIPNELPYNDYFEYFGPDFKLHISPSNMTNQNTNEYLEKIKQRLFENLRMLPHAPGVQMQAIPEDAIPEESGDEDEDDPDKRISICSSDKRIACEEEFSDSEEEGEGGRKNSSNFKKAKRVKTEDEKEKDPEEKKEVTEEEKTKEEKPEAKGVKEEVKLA
Excerpt: The principle was shown in the following reaction formula: HDAC1 catalyzes the deacetylation of a substrate FLUOR DE LYS® Substrate (containing an acetylated side chain), the product can react with FLUOR DE LYS® Developer II to generate fluorescence (shown in the following reaction process), and the inhibitory activity of a molecule to be detected on HDAC1 can be indirectly obtained by detecting the fluorescence intensity of the product. In this experiment, 360 nm was selected as the excitation wavelength and 460 nm as the emission wavelength for detection. FLUOR DE LYS® HDAC1 fluorometric drug discovery assay kit required for experiments was purchased from Enzo Biochem Inc.
During the test, the sample was prepared according to the specific experimental conditions of blocking the HDAC1 enzyme activity of the compound of the present invention in vitro in accordance with Table 2 below.

[6] = system: human breast cancer cell line MDA-MB-231; experiment: MTT tumor cell proliferation; format: cell-based; details: 72 h
Excerpt: as §1
In the experiments of this embodiment, the selected cell lines are human breast cancer cell line MDA-MB-231 and BT-474, human colon adenocarcinoma cell HCT116, mouse colon cancer cell CT26.WT, mouse breast cancer cell 4T1. During the test, the cells in logarithmic phase and in good condition were digested with 0.25% trypsin digestion solution to make the adherent cells fall off, and the cell suspension (suspension cells without trypsin digestion) was made by counting 2-4×10^4 cells/ml. The cell suspension was inoculated on a 96-well plate at 100 μl/well and cultured in a constant temperature CO2 incubator for 24 h. Then the tested drugs were added, 100 μl/well, and cultured for 72 h. MTT was added to a 96-well plate, 20 μl/well, and reacted for 4 h in the incubator. Absorb the supernatant, add DMSO, 150 μl/well and shake for 10 min on the plate shaker. The optical density (OD value) of each well was measured by enzyme marker at the wavelength of 490 nm. […]

[7] = target: T2, recombinant human LSD1 protein (Homo sapiens, UniProt O60341); experiment: In vitro LSD1 inhibitory activity, LSD1-HRP coupling reaction (Amplex Red); format: biochemical; details: LSD1 enzyme activity in vitro; 30 min preincubation; H3K4Me2 peptide
T2 construct: made in house; host or cells: E. coli
Excerpt: LSD1 activity was detected by using LSD1-HRP coupling reaction. […] During the reduction of H2O2 to H2O, Amplex Red acts as an electron donor and oxidizes to Resorufin for detection of fluorescence. […] Ampliflu™ Red, peroxidase, from horseradish required for the experiment was purchased from SIGMA; H3K4Me2 substrate peptide was purchased from GL Biochemical (Shanghai) Co., Ltd.

SMILES	IC50 [5] [nM]	IC50 [7] [nM]	other results
N[C@@H]1C[C@H]1c1ccccc1 (racemic) [TCP, tranylcypromine, reference compound]	> 100000		IC50 [1]: > 10000 nM; IC50 ([2]; 72 h): > 10000 nM; IC50 [3]: > 10000 nM; IC50 [4]: > 10000 nM; IC50 [6]: > 10000 nM
Cc1cc(/C=C/C(=O)NO)ccc1-c1ccc(N2CCNCC2)cc1 [ZZY-001]	671	1550	IC50 ([1]; Homo sapiens): 17800 nM; IC50 ([2]; Homo sapiens, HCT-116, 72 h): 1540 nM; IC50 ([3]; Mus musculus): 2200 nM; IC50 ([4]; Mus musculus): 3870 nM; IC50 ([6]; Homo sapiens): 2320 nM
Cc1cc(/C=C/C(=O)NO)ccc1-c1ccc(N2CCNCC2)cc1NC(=O)c1ccccc1 [ZZY-002]	71.6	1320	IC50 ([1]; Homo sapiens): 7560 nM; IC50 ([2]; Homo sapiens, HCT-116, 72 h): 1290 nM; IC50 ([3]; Mus musculus): 31200 nM; IC50 ([4]; Mus musculus): 5610 nM; IC50 ([6]; Homo sapiens): 1370 nM
Cc1ccc(C(=O)Nc2cc(N3CCNCC3)ccc2-c2ccc(C(=O)Nc3ccccc3N)cc2C)cc1 [ZZY-005]	8940	5160	
Cc1cc(C(=O)Nc2ccccc2N)ccc1-c1ccc(N2CCNCC2)cc1 [ZZY-006]	5380	2380	
Cc1cc(/C=C/C(=O)NO)ccc1-c1ccc(N2CCOCC2)cc1 [ZZY-007]	1110	477	
O=C(/C=C/c1ccc(-c2ccc(N3CCOCC3)cc2)cc1)NO [ZZY-008]	9360	716	

More lines, main results first:

IC50 [5] [nM]	IC50 [7] [nM]	SMILES	other results
2800	1400	Cc1cc(/C=C/C(=O)NO)ccc1-c1ccc(-n2ccnc2)cc1 [ZZY-009]	
3520	8260	O=C(/C=C/c1ccc(-c2ccc(-n3ccnc3)cc2)cc1)NO [ZZY-010]	
434	131	Cc1cc(/C=C/C(=O)NO)ccc1-c1ccc(N2CCN(C)CC2)cc1 [ZZY-011]	IC50 ([1]; Homo sapiens): 5900 nM; IC50 ([2]; Homo sapiens, HCT-116, 72 h): 728 nM; IC50 ([3]; Mus musculus): 1050 nM; IC50 ([4]; Mus musculus): 2600 nM; IC50 ([6]; Homo sapiens): 2040 nM
942	16.1	CN1CCN(c2ccc(-c3ccc(/C=C/C(=O)NO)cc3)cc2)CC1 [ZZY-012]	IC50 ([1]; Homo sapiens): 4210 nM; IC50 ([2]; Homo sapiens, HCT-116, 72 h): 469 nM; IC50 ([3]; Mus musculus): 737 nM; IC50 ([4]; Mus musculus): 2320 nM; IC50 ([6]; Homo sapiens): 1140 nM
9640	1410	Cc1cc(/C=C/C(=O)NO)ccc1-c1ccc(N2CCCCC2)cc1 [ZZY-013]	
9860	1110	O=C(/C=C/c1ccc(-c2ccc(N3CCCCC3)cc2)cc1)NO [ZZY-014]	
262	879	Cc1cc(/C=C/C(=O)NO)ccc1-c1ccc(N2CCNCC2)nc1 [ZZY-015]	
451	991	O=C(/C=C/c1ccc(-c2ccc(N3CCNCC3)nc2)cc1)NO [ZZY-016]	
